According to PubChem BioAssay (NCI):
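These data come from cells grown in 96-well plates and exposed to compound for 48 hours at five concentrations. At the TGI there is no net growth.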

The molecules below were run on SK-OV-3 ovarian (assay: NCI tumour cell line growth inhibition, 48 h).

Compound | TGI [µM]
N/C(=N\Nc1ccc(C(=O)O)cc1)c1cnccn1 | > 100
CC(C)NC(=O)OCc1c(COC(=O)NC(C)C)n(C)c2c1ccc1ccsc12 | 69.6

These molecules were tested on MDA-N (assay: NCI tumour cell line growth inhibition, 48 h).

Compound | TGI [µM]
N/C(=N\Nc1ccc(C(=O)O)cc1)c1cnccn1 | > 100
CCN(CC)c1ccc(/C=C/C2=NN(c3cccc(S(=O)(=O)O)c3)C3(C2)SCC(=O)N3c2nc3ccccc3s2)cc1 (configuration not stated) | > 100
CC(C)NC(=O)OCc1c(COC(=O)NC(C)C)n(C)c2c1ccc1ccsc12 | 26.1
COC(=O)C12C3C4C1C1C2C3C41C(=O)NC(C)(C)CC(=O)O (configuration not stated) | > 100

These molecules were tested on SF-295 CNS (assay: NCI tumour cell line growth inhibition, 48 h).

Compound | TGI [µM]
N/C(=N\Nc1ccc(C(=O)O)cc1)c1cnccn1 | > 100
CC(C)NC(=O)OCc1c(COC(=O)NC(C)C)n(C)c2c1ccc1ccsc12 | > 81.4
COC(=O)C12C3C4C1C1C2C3C41C(=O)NC(C)(C)CC(=O)O (configuration not stated) | > 100

What follows are molecules tested on TK-10 renal (assay: NCI tumour cell line growth inhibition, 48 h).

Compound | TGI [µM]
N/C(=N\Nc1ccc(C(=O)O)cc1)c1cnccn1 | > 100
CCN(CC)c1ccc(/C=C/C2=NN(c3cccc(S(=O)(=O)O)c3)C3(C2)SCC(=O)N3c2nc3ccccc3s2)cc1 (configuration not stated) | 94
CC(C)NC(=O)OCc1c(COC(=O)NC(C)C)n(C)c2c1ccc1ccsc12 | > 94.4
COC(=O)C12C3C4C1C1C2C3C41C(=O)NC(C)(C)CC(=O)O (configuration not stated) | > 100

What follows are molecules tested on MOLT-4 leukemia (assay: NCI tumour cell line growth inhibition, 48 h).

Compound | TGI [µM]
N/C(=N\Nc1ccc(C(=O)O)cc1)c1cnccn1 | > 100
CCN(CC)c1ccc(/C=C/C2=NN(c3cccc(S(=O)(=O)O)c3)C3(C2)SCC(=O)N3c2nc3ccccc3s2)cc1 (configuration not stated) | > 100
CC(C)NC(=O)OCc1c(COC(=O)NC(C)C)n(C)c2c1ccc1ccsc12 | 12.4
COC(=O)C12C3C4C1C1C2C3C41C(=O)NC(C)(C)CC(=O)O (configuration not stated) | > 100

Each molecule was assayed on DU-145 prostate (assay: NCI tumour cell line growth inhibition, 48 h).

Compound | TGI [µM]
N/C(=N\Nc1ccc(C(=O)O)cc1)c1cnccn1 | > 100
CCN(CC)c1ccc(/C=C/C2=NN(c3cccc(S(=O)(=O)O)c3)C3(C2)SCC(=O)N3c2nc3ccccc3s2)cc1 (configuration not stated) | 75.7
CC(C)NC(=O)OCc1c(COC(=O)NC(C)C)n(C)c2c1ccc1ccsc12 | 27.4
COC(=O)C12C3C4C1C1C2C3C41C(=O)NC(C)(C)CC(=O)O (configuration not stated) | > 100

These molecules were tested on OVCAR-5 ovarian (assay: NCI tumour cell line growth inhibition, 48 h).

Compound | TGI [µM]
N/C(=N\Nc1ccc(C(=O)O)cc1)c1cnccn1 | > 100
CCN(CC)c1ccc(/C=C/C2=NN(c3cccc(S(=O)(=O)O)c3)C3(C2)SCC(=O)N3c2nc3ccccc3s2)cc1 (configuration not stated) | > 100
CC(C)NC(=O)OCc1c(COC(=O)NC(C)C)n(C)c2c1ccc1ccsc12 | 54.1
COC(=O)C12C3C4C1C1C2C3C41C(=O)NC(C)(C)CC(=O)O (configuration not stated) | > 100

These molecules were tested on SK-MEL-5 melanoma (assay: NCI tumour cell line growth inhibition, 48 h).

Compound | TGI [µM]
N/C(=N\Nc1ccc(C(=O)O)cc1)c1cnccn1 | > 100
CCN(CC)c1ccc(/C=C/C2=NN(c3cccc(S(=O)(=O)O)c3)C3(C2)SCC(=O)N3c2nc3ccccc3s2)cc1 (configuration not stated) | > 100
CC(C)NC(=O)OCc1c(COC(=O)NC(C)C)n(C)c2c1ccc1ccsc12 | 22.7
COC(=O)C12C3C4C1C1C2C3C41C(=O)NC(C)(C)CC(=O)O (configuration not stated) | > 100

These molecules were tested on NCI/ADR-RES ovarian (assay: NCI tumour cell line growth inhibition, 48 h).

Compound | TGI [µM]
N/C(=N\Nc1ccc(C(=O)O)cc1)c1cnccn1 | > 100
CCN(CC)c1ccc(/C=C/C2=NN(c3cccc(S(=O)(=O)O)c3)C3(C2)SCC(=O)N3c2nc3ccccc3s2)cc1 (configuration not stated) | > 100
CC(C)NC(=O)OCc1c(COC(=O)NC(C)C)n(C)c2c1ccc1ccsc12 | 31.4
COC(=O)C12C3C4C1C1C2C3C41C(=O)NC(C)(C)CC(=O)O (configuration not stated) | > 100

What follows are molecules tested on CAKI-1 renal (assay: NCI tumour cell line growth inhibition, 48 h).

Compound | TGI [µM]
N/C(=N\Nc1ccc(C(=O)O)cc1)c1cnccn1 | > 100
CCN(CC)c1ccc(/C=C/C2=NN(c3cccc(S(=O)(=O)O)c3)C3(C2)SCC(=O)N3c2nc3ccccc3s2)cc1 (configuration not stated) | > 100
CC(C)NC(=O)OCc1c(COC(=O)NC(C)C)n(C)c2c1ccc1ccsc12 | 13.9
COC(=O)C12C3C4C1C1C2C3C41C(=O)NC(C)(C)CC(=O)O (configuration not stated) | > 100

These molecules were tested on OVCAR-4 ovarian (assay: NCI tumour cell line growth inhibition, 48 h).

Compound | TGI [µM]
N/C(=N\Nc1ccc(C(=O)O)cc1)c1cnccn1 | > 100
CCN(CC)c1ccc(/C=C/C2=NN(c3cccc(S(=O)(=O)O)c3)C3(C2)SCC(=O)N3c2nc3ccccc3s2)cc1 (configuration not stated) | > 100
CC(C)NC(=O)OCc1c(COC(=O)NC(C)C)n(C)c2c1ccc1ccsc12 | 23.7
COC(=O)C12C3C4C1C1C2C3C41C(=O)NC(C)(C)CC(=O)O (configuration not stated) | > 100

What follows are molecules tested on M14 melanoma (assay: NCI tumour cell line growth inhibition, 48 h).

Compound | TGI [µM]
N/C(=N\Nc1ccc(C(=O)O)cc1)c1cnccn1 | > 100
CCN(CC)c1ccc(/C=C/C2=NN(c3cccc(S(=O)(=O)O)c3)C3(C2)SCC(=O)N3c2nc3ccccc3s2)cc1 (configuration not stated) | > 100
CC(C)NC(=O)OCc1c(COC(=O)NC(C)C)n(C)c2c1ccc1ccsc12 | 22.5
COC(=O)C12C3C4C1C1C2C3C41C(=O)NC(C)(C)CC(=O)O (configuration not stated) | > 100

These molecules were tested on SNB-75 CNS (assay: NCI tumour cell line growth inhibition, 48 h).

Compound | TGI [µM]
N/C(=N\Nc1ccc(C(=O)O)cc1)c1cnccn1 | > 100
CCN(CC)c1ccc(/C=C/C2=NN(c3cccc(S(=O)(=O)O)c3)C3(C2)SCC(=O)N3c2nc3ccccc3s2)cc1 (configuration not stated) | > 100
CC(C)NC(=O)OCc1c(COC(=O)NC(C)C)n(C)c2c1ccc1ccsc12 | 26.9
COC(=O)C12C3C4C1C1C2C3C41C(=O)NC(C)(C)CC(=O)O (configuration not stated) | > 100

These molecules were tested on HOP-92 NSCLC (assay: NCI tumour cell line growth inhibition, 48 h).

Compound | TGI [µM]
N/C(=N\Nc1ccc(C(=O)O)cc1)c1cnccn1 | > 100
CCN(CC)c1ccc(/C=C/C2=NN(c3cccc(S(=O)(=O)O)c3)C3(C2)SCC(=O)N3c2nc3ccccc3s2)cc1 (configuration not stated) | > 100
CC(C)NC(=O)OCc1c(COC(=O)NC(C)C)n(C)c2c1ccc1ccsc12 | 45.4
COC(=O)C12C3C4C1C1C2C3C41C(=O)NC(C)(C)CC(=O)O (configuration not stated) | > 100

The molecules below were run on RXF 393 renal (assay: NCI tumour cell line growth inhibition, 48 h).

Compound | TGI [µM]
N/C(=N\Nc1ccc(C(=O)O)cc1)c1cnccn1 | > 100
CCN(CC)c1ccc(/C=C/C2=NN(c3cccc(S(=O)(=O)O)c3)C3(C2)SCC(=O)N3c2nc3ccccc3s2)cc1 (configuration not stated) | > 100
CC(C)NC(=O)OCc1c(COC(=O)NC(C)C)n(C)c2c1ccc1ccsc12 | 21.1
COC(=O)C12C3C4C1C1C2C3C41C(=O)NC(C)(C)CC(=O)O (configuration not stated) | > 100
